Where “and” joins values, the source holds several entries; their conditions need not be identical. Equal values may be shown once. Inconclusive results and toxic doses are left out. Square brackets hold non-standard residues; d marks the D form. Peptide text beside a SMILES is read from it. Sar = CNCC(=O)O
System: L1210 leukemia ip in BDF1 mice, survival T/C
Test: NCI In Vivo Anticancer Drug Screen. Data for tumor model L1210 Leukemia (intraperitoneal) in B6D2F1 (BDF1) mice
Conditions: endpoint: mean survival time, higher = longer survival
How it was run: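 Value reflects the ratio of survival in compound-treated mice to survival in vehicle-treated controls, with both groups carrying the same transplanted tumor.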

[1] = dose: 100.0 mg/kg/injection, schedule: Q01DX009 (ip), vehicle: Klucel (hydroxypropylcellulose) (HPC)
[2] = dose: 100.0 mg/kg/injection, schedule: Q04DX003 (ip), vehicle: Klucel (hydroxypropylcellulose) (HPC)
[3] = dose: 200.0 mg/kg/injection, schedule: Q01DX009 (ip), vehicle: Klucel (hydroxypropylcellulose) (HPC)
[4] = dose: 200.0 mg/kg/injection, schedule: Q04DX003 (ip), vehicle: Klucel (hydroxypropylcellulose) (HPC)
[5] = dose: 400.0 mg/kg/injection, schedule: Q01DX009 (ip), vehicle: Klucel (hydroxypropylcellulose) (HPC)
[6] = dose: 400.0 mg/kg/injection, schedule: Q04DX003 (ip), vehicle: Klucel (hydroxypropylcellulose) (HPC)
[7] = dose: 100.0 mg/kg/injection, schedule: Q01DX001 (ip), vehicle: Klucel (hydroxypropylcellulose) (HPC)
[8] = dose: 200.0 mg/kg/injection, schedule: Q01DX001 (ip), vehicle: Klucel (hydroxypropylcellulose) (HPC)
[9] = dose: 400.0 mg/kg/injection, schedule: Q01DX001 (ip), vehicle: Klucel (hydroxypropylcellulose) (HPC)
[10] = dose: 100.0 mg/kg/injection, schedule: Q01DX001 (ip), vehicle: saline
[11] = dose: 200.0 mg/kg/injection, schedule: Q01DX001 (ip), vehicle: saline
[12] = dose: 400.0 mg/kg/injection, schedule: Q01DX001 (ip), vehicle: saline
[13] = dose: 100.0 mg/kg/injection, schedule: Q04DX002 (ip), vehicle: saline
[14] = dose: 100.0 mg/kg/injection, schedule: Q01DX009 (ip), vehicle: saline with Tween-80
[15] = dose: 200.0 mg/kg/injection, schedule: Q01DX009 (ip), vehicle: saline with Tween-80
[16] = dose: 400.0 mg/kg/injection, schedule: Q01DX009 (ip), vehicle: saline with Tween-80
[17] = dose: 50.0 mg/kg/injection, schedule: Q01DX009 (ip), vehicle: saline with Tween-80

## CC(/C=N/N/C(N)=N\N)=N\N/C(N)=N/N
dose: 15.0 mg/kg/injection, schedule: Q01DX Z (ip), vehicle: methylcellulose (MC)
  T/C: 105 % of control
dose: 30.0 mg/kg/injection, schedule: Q01DX Z (ip), vehicle: methylcellulose (MC)
  T/C: 103 % of control
dose: 60.0 mg/kg/injection, schedule: Q01DX Z (ip), vehicle: methylcellulose (MC)
  T/C: 98 % of control
dose: 120.0 mg/kg/injection, schedule: Q01DX Z (ip), vehicle: methylcellulose (MC)
  T/C: 104 % of control
dose: 240.0 mg/kg/injection, schedule: Q01DX Z (ip), vehicle: methylcellulose (MC)
  T/C: 98 % of control

## CCCCCCCCCCc1ccc(CCCCCCCCCC)cc1
dose: 100.0 mg/kg/injection, schedule: Q01DX001 (ip), vehicle: saline with Tween-80
  T/C: 94 % of control
dose: 200.0 mg/kg/injection, schedule: Q01DX001 (ip), vehicle: saline with Tween-80
  T/C: 92 % of control
dose: 400.0 mg/kg/injection, schedule: Q01DX001 (ip), vehicle: saline with Tween-80
  T/C: 99 % of control

## C/C(=N/N=C(N)N)c1ccc(NC(=S)Nc2ccc(/C(C)=N/N=C(N)N)cc2)cc1
dose: 20.0 mg/kg/injection, schedule: Q01DX009 (ip), vehicle: water
  T/C: 176 % of control

## O=C(N/N=C/c1cccc([N+](=O)[O-])c1)C(O)C(O)C(O)C(O)CO (stereo unspecified)
dose: 100.0 mg/kg/injection, schedule: Q01DX001 (ip), vehicle: carboxymethylcellulose (CMC)
  T/C: 97 % of control
dose: 100.0 mg/kg/injection, schedule: Q01DX009 (ip), vehicle: carboxymethylcellulose (CMC)
  T/C: 102 % of control
dose: 100.0 mg/kg/injection, schedule: Q04DX002 (ip), vehicle: carboxymethylcellulose (CMC)
  T/C: 100 % of control
dose: 100.0 mg/kg/injection, schedule: Q04DX003 (ip), vehicle: carboxymethylcellulose (CMC)
  T/C: 94 % of control
dose: 200.0 mg/kg/injection, schedule: Q01DX001 (ip), vehicle: carboxymethylcellulose (CMC)
  T/C: 104 % of control
dose: 200.0 mg/kg/injection, schedule: Q01DX009 (ip), vehicle: carboxymethylcellulose (CMC)
  T/C: 104 % of control and 91 % of control
dose: 200.0 mg/kg/injection, schedule: Q04DX002 (ip), vehicle: carboxymethylcellulose (CMC)
  T/C: 96 % of control and 106 % of control
dose: 200.0 mg/kg/injection, schedule: Q04DX003 (ip), vehicle: carboxymethylcellulose (CMC)
  T/C: 100 % of control
dose: 400.0 mg/kg/injection, schedule: Q01DX001 (ip), vehicle: carboxymethylcellulose (CMC)
  T/C: 95 % of control
dose: 400.0 mg/kg/injection, schedule: Q01DX009 (ip), vehicle: carboxymethylcellulose (CMC)
  T/C: 94 % of control
dose: 400.0 mg/kg/injection, schedule: Q04DX002 (ip), vehicle: carboxymethylcellulose (CMC)
  T/C: 103 % of control and 91 % of control
dose: 400.0 mg/kg/injection, schedule: Q04DX003 (ip), vehicle: carboxymethylcellulose (CMC)
  T/C: 94 % of control

## Cc1ccc(-c2cc(-c3ccccc3)no2)cc1
[1]
  T/C: 97 % of control
[2]
  T/C: 102 % of control
[3]
  T/C: 95 % of control
[4]
  T/C: 102 % of control
[5]
  T/C: 95 % of control
[6]
  T/C: 93 % of control

## Cc1ccc([N+](=O)[O-])cc1P(=O)(O)c1cc([N+](=O)[O-])ccc1C
dose: 100.0 mg/kg/injection, schedule: Q01DX001 (ip), vehicle: acetone
  T/C: 94 % of control
dose: 100.0 mg/kg/injection, schedule: Q04DX003 (ip), vehicle: acetone
  T/C: 103 % of control
dose: 200.0 mg/kg/injection, schedule: Q01DX001 (ip), vehicle: acetone
  T/C: 94 % of control
dose: 200.0 mg/kg/injection, schedule: Q04DX003 (ip), vehicle: acetone
  T/C: 92 % of control
dose: 400.0 mg/kg/injection, schedule: Q01DX001 (ip), vehicle: acetone
  T/C: 93 % of control
dose: 400.0 mg/kg/injection, schedule: Q04DX003 (ip), vehicle: acetone
  T/C: 100 % of control

## COc1ccc(C2=NCCO2)cc1N
[7]
  T/C: 114 % of control
[2]
  T/C: 96 % of control
[8]
  T/C: 104 % of control
[4]
  T/C: 98 % of control
[9]
  T/C: 104 % of control
[6]
  T/C: 91 % of control

## CCC(CCNC(=O)c1ccccc1)(CCNC(=O)c1ccccc1)[N+](=O)[O-]
[10]
  T/C: 95 % of control
[11]
  T/C: 106 % of control
[12]
  T/C: 92 % of control

## C/C=C/C=C\COC(=O)C1CC1
[13]
  T/C: 116 % of control
dose: 200.0 mg/kg/injection, schedule: Q04DX002 (ip), vehicle: saline
  T/C: 121 % of control

## O=c1c2ccccc2sc2c(CO)ccc(NCCN3CCCCC3)c12
dose: 50.0 mg/kg/injection, schedule: Q01DX009 (ip), vehicle: Klucel (hydroxypropylcellulose) (HPC)
  T/C: 99 % of control
[1]
  T/C: 96 % of control
[3]
  T/C: 120 % of control

## Cc1ccc(COC(=O)c2cccnc2)cc1
[7]
  T/C: 103 % of control
[8]
  T/C: 100 % of control
[9]
  T/C: 103 % of control

## CCCCC(OC(=O)c1ccc([N+](=O)[O-])cc1)C(C)[N+](=O)[O-] (stereo unspecified)
[14]
  T/C: 94 % of control
[15]
  T/C: 97 % of control
[16]
  T/C: 92 % of control

## Nc1nc(-c2ccccc2)cc(-c2ccccc2)c1-c1ccccc1
[17]
  T/C: 108 % of control
[14]
  T/C: 112 % of control
[15]
  T/C: 104 % of control

## COc1ccc(/C=N/NC(=O)c2ccc(Cl)c(Cl)c2)cc1
[1]
  T/C: 91 % of control
[3]
  T/C: 100 % of control
[5]
  T/C: 90 % of control

## O=C(O)CCCCCNC(=O)c1ccccc1
[1]
  T/C: 92 % of control
dose: 100.0 mg/kg/injection, schedule: Q04DX003 (ip), vehicle: saline
  T/C: 114 % of control
[3]
  T/C: 93 % of control
dose: 200.0 mg/kg/injection, schedule: Q04DX003 (ip), vehicle: saline
  T/C: 100 % of control
[5]
  T/C: 102 % of control
dose: 400.0 mg/kg/injection, schedule: Q04DX003 (ip), vehicle: saline
  T/C: 103 % of control

## COC(=O)CCS
dose: 10.0 mg/kg/injection, schedule: Q01DX001 (ip), vehicle: saline
  T/C: 101 % of control
dose: 20.0 mg/kg/injection, schedule: Q01DX001 (ip), vehicle: saline
  T/C: 101 % of control
dose: 40.0 mg/kg/injection, schedule: Q01DX001 (ip), vehicle: saline
  T/C: 96 % of control

## COc1ccc(C)cc1NC(=O)Nc1cccc(C(F)(F)F)c1
[1]
  T/C: 92 % of control
[3]
  T/C: 86 % of control
[5]
  T/C: 95 % of control

## CN(CC(=O)O)C(=O)CN (H-Gly-[Sar]-OH)
dose: 25.0 mg/kg/injection, schedule: Q04DX002 (ip), vehicle: saline
  T/C: 113 % of control
dose: 50.0 mg/kg/injection, schedule: Q04DX002 (ip), vehicle: saline
  T/C: 97 % of control
[13]
  T/C: 103 % of control

## O=[N+]([O-])c1ccc(NCCO)cc1
dose: 50.0 mg/kg/injection, schedule: Q01DX001 (ip), vehicle: saline
  T/C: 96 % of control
[10]
  T/C: 96 % of control
[11]
  T/C: 102 % of control
[12]
  T/C: 96 % of control

## CS(=O)c1nsc(S(C)=O)c1C#N (stereo unspecified)
dose: 12.5 mg/kg/injection, schedule: Q04DX002 (ip), vehicle: Klucel (hydroxypropylcellulose) (HPC)
  T/C: 122 % of control

## Oc1ccccc1C=NCCN=Cc1ccccc1O.[CH3][Sn]([CH3])([Cl])[Cl]
dose: 12.5 mg/kg/injection, schedule: Q01DX009 (ip), vehicle: saline with Tween-80
  T/C: 102 % of control
dose: 25.0 mg/kg/injection, schedule: Q01DX009 (ip), vehicle: saline with Tween-80
  T/C: 110 % of control
[17]
  T/C: 107 % of control

## C#CCNC(=O)NCCCl
[14]
  T/C: 97 % of control
dose: 100.0 mg/kg/injection, schedule: Q04DX003 (ip), vehicle: saline with Tween-80
  T/C: 101 % of control
[15]
  T/C: 99 % of control
dose: 200.0 mg/kg/injection, schedule: Q04DX003 (ip), vehicle: saline with Tween-80
  T/C: 104 % of control
[16]
  T/C: 97 % of control
dose: 400.0 mg/kg/injection, schedule: Q04DX003 (ip), vehicle: saline with Tween-80
  T/C: 101 % of control

## CC12CC3C(C(=O)O)C(C(=O)O)C1C(C(=O)O2)C3C(=O)O (stereo unspecified)
dose: 50.0 mg/kg/injection, schedule: Q01DX009 (ip), vehicle: saline
  T/C: 97 % of control
[10]
  T/C: 91 % of control
dose: 100.0 mg/kg/injection, schedule: Q01DX009 (ip), vehicle: saline
  T/C: 90 % of control
[11]
  T/C: 89 % of control
dose: 200.0 mg/kg/injection, schedule: Q01DX009 (ip), vehicle: saline
  T/C: 100 % of control
[12]
  T/C: 87 % of control

## CCCCCCc1cc(CN(C2CCCCC2)C2CCCCC2)c(O)cc1O
[10]
  T/C: 92 % of control
[12]
  T/C: 87 % of control
